Assay: pKa value by using fluorescence emission spectra
Type: physicochemical

| Compound | pKa |
| --- | --- |
| CN(C)c1ccc2c(-c3cc(C(=O)O)ccc3C(=O)O)c3ccc4c(F)c(=O)ccc4c3oc2c1 | 6.4 |
| CN(C)c1ccc2c(-c3cc(C(=O)O)ccc3C(=O)O)c3ccc4cc(=O)ccc4c3oc2c1 | 7.5 |
| CN(C)c1ccc2c(-c3cc(C(=O)O)ccc3C(=O)O)c3cc(F)c4cc(=O)ccc4c3oc2c1 | 7.2 |
